This is an account of results in paper PMC2409616 (British Journal of Cancer, 2004).

Data set [1] deals with SiHa. Kind of data set: cells. The conditions noted are these: Homo sapiens, 4 h, read-out: IC50 following 4 h drug exposure.
Data set [2] relates to V79-NTR^puro cells.
Data set [3] concerns UV4. Kind of data set: cells. The settings on record: Cricetulus griseus, UV4, 4 h, read-out: IC50 following 4 h drug exposure.
The subject of data set [4] is AA8. Nature of the data set: cells. The settings on record: Cricetulus griseus, CHO-AA8, 4 h, read-out: IC50 following 4 h drug exposure.
Data set [5] deals with SiHa-NTR^puro cells. Nature of the data set: Metabolic consumption of prodrug in stirred single-cell suspensions (loss from extracellular medium). The conditions noted are these: corrected to 10^6 cells ml^−1, mean±s.e.m., 2–3 cell suspensions.
Data set [6] deals with UV4.
Data set [7] relates to WiDr. Kind of data set: cells. The settings on record: Homo sapiens, 4 h, read-out: IC50 following 4 h drug exposure.
Data set [8] concerns V79^puro. Nature of the data set: cells. The settings on record: Cricetulus griseus, 4 h, read-out: IC50 following 4 h drug exposure.
Data set [9] has as its system V79^puro cells (NTR−ve).
Data set [10] concerns SiHa cells. Kind of data set: Metabolic consumption of prodrug in stirred single-cell suspensions (loss from extracellular medium). The settings on record: corrected to 10^6 cells ml^−1, mean±s.e.m., 2–3 cell suspensions.
The test system of data set [11] is SiHa-NTR^puro MCLs.
The subject of data set [12] is UV4 cells.
The test system of data set [13] is SiHa MCLs. Nature of the data set: Transport through multicellular layers (two-chamber diffusion apparatus). The conditions noted are these: 100 μM in donor compartment.

Values joined by “and” are separate entries in the source; they are usually repeats but may differ in a detail not shown here. Equal values may be shown once. Read-outs that look alike come from different tables or passages of the source. A value given as a limit tells only on which side of the number the result lay.

A word on the IC50: it is the concentration that inhibits the measured activity by half. In the case of `NC(=O)c1cc(N(CCCl)CCCl)c([N+](=O)[O-])cc1[N+](=O)[O-]` [compound 7, 5-[N,N-bis(2-chloroethyl)amino]-2,4-dinitrobenzamide], the IC50 in [1] was > 800 µM; in [3] it was 761 ± 89 µM; in [4], ~1000 µM; in data set [7] it was > 1000 µM; in [8], > 500 µM. The “First-order rate constant k of metabolic consumption” value in data set [2] (V79-NTR^puro, corrected to 10^6 cells ml^−1, mean±s.e.m., 2–3 cell suspensions) is 0.17 ± 0.003 h⁻¹; in data set [5], 0.6 ± 0.2 h⁻¹; in data set [9] (V79^puro, corrected to 10^6 cells ml^−1, mean±s.e.m., 2–3 cell suspensions), 0.0020 ± 0.0001 h⁻¹; in data set [10], <0.001 h⁻¹. In addition, in data set [6], the “AA8/UV4 intra-experiment IC50 ratio” value is listed as “ca 1.3”.

On to `NC(=O)c1cc(N2CC2)c(NO)cc1[N+](=O)[O-]` [compound 4, 5-(aziridin-1-yl)-4-hydroxylamino-2-nitrobenzamide], for which the IC50 in [1] was found to be 45 ± 9 µM; in data set [3] it was 0.62 ± 0.05 µM; in data set [4], 39 ± 6 µM; in data set [7] it was 26 ± 5 µM; in data set [8], 6.9 ± 0.6 µM. Besides, the “Appearance of metabolite in donor and receiver compartments” value (“Appearance of metabolite” below) in data set [11] is reported as “not detected at all in the receiver compartment”. Besides, the “AA8/UV4 intra-experiment IC50 ratio” value in data set [6] was 63 and 63±5. Further, in data set [6], the “Fold less potent in the four repair competent cell lines than in UV4” value is given as 11–70 fold. Further, in data set [12], the “Bioactivity of HPLC fraction against UV4 cells” value (from here on “Bioactivity of HPLC fraction”) is reported as “greatest activity”. In addition, the “Appearance in the receiver compartment in the presence of an MCL vs bare support membrane” value in data set [13] was “greatly reduced”.

For the compound `NC(=O)c1cc(N(CCCl)CCCl)c([N+](=O)[O-])cc1NO` [compound 8], the concentration for half-maximal inhibition (IC50) in [1] came out at 2.07 ± 0.08 µM; in data set [3], 0.045 ± 0.001 µM; in [4] it was 2.3 ± 0.1 µM; in data set [7] it was 1.2 ± 0.1 µM; in data set [8] it was 1.74 ± 0.23 µM. Further, the “AA8/UV4 intra-experiment IC50 ratio” value in [6] amounted to 51±1.

On to `NC(=O)c1cc(N2CC2)c([N+](=O)[O-])cc1NO` [compound 2], for which the IC50 in data set [3] was 6.3 µM; in data set [4] it was 22 µM. Moreover, the “Appearance of metabolite” value in data set [11] is reported as “not detected in either compartment”. The “AA8/UV4 intra-experiment IC50 ratio” value in [6] was determined as 3.4. Besides, the “Bioactivity of HPLC fraction” value in data set [12] is “significant cytotoxicity”.

For the compound `NC(=O)c1cc(N2CC2)c([N+](=O)[O-])cc1[N+](=O)[O-]` [compound 1, 5-(aziridin-1-yl)-2,4-dinitrobenzamide, reference compound], the IC50 in data set [1] was determined as 277 ± 36 µM; in data set [3] it was 135 ± 28 µM; in data set [4] it was 2480 ± 260 µM; in [7] it was 485 ± 34 µM; in data set [8], 2950 ± 113 µM. For the same compound, the “First-order rate constant k of metabolic consumption” value came to 0.08 ± 0.03 h⁻¹ in [2] (Chinese hamster), 0.22 ± 0.06 h⁻¹ in data set [5], 0.0010 ± 0.0004 h⁻¹ in data set [9] (Chinese hamster) and 0.0066 ± 0.0001 h⁻¹ in data set [10]. Also, in data set [12] (extracellular medium of V79-NTR^puro suspensions (5 × 10^6 ml^−1, 3 h) with CB 1954), the “Bioactivity of HPLC fraction” value is given as “weak cytotoxicity”.

On to `NC(=O)c1cc(N2CC2)c([N+](=O)[O-])cc1N` [compound 3], for which the IC50 in data set [1] was 7.9 ± 3.3 µM; in data set [3] it was 3.7 ± 0.7 µM; in data set [4], 28 ± 8 µM; in data set [7], 21 ± 3 µM; in [8], 56 ± 7 µM. Further, in [11], the “Appearance of metabolite” value is “accumulated in both compartments”. Also, the “Initial flux of metabolite” value in [11] (human) is ~0.2 µM/h. The “Bioactivity of HPLC fraction” value in [12] is “significant cytotoxicity”.

Consider `NC(=O)c1cc(N2CC2)c(N)cc1[N+](=O)[O-]` [compound 5], for which the IC50 in data set [1] was determined as 163 ± 39 µM; in data set [3], 47 ± 5 µM; in [4] it was 62 ± 12 µM; in data set [7] it was 141 ± 34 µM; in data set [8], 238 ± 6 µM. Besides, the “Appearance of metabolite” value in data set [11] is on record as “accumulated in both compartments”. Also, in data set [6], the “AA8/UV4 intra-experiment IC50 ratio” value was 1.2±0.1. The “Bioactivity of HPLC fraction” value in [12] was “significant cytotoxicity”.
